According to ChEMBL document CHEMBL1122002, “Crystal structures and pharmacological activity of calcium channel antagonists: 2,6-dimethyl-3,5-dicarbomethoxy-4-(unsubstituted, 2-methyl-, 4-methyl-, 3-nitro-, 4-nitro-, and 2,4-dinitrophenyl)-1,4-dihydropyridine” (J Med Chem, 1982):

Experiments:
[1] = molecular target: Voltage-gated L-type calcium channel (Homo sapiens, UniProt Q13936+Q13698+Q01668+O60840); test: Calcium channel antagonistic activity relative to 2,6-Dimethyl-4-(2-nitro-phenyl)-1,4-dihydro-pyridine-3,5-dicarboxylic acid dimethyl ester(=100); assay type: functional, Cavia porcellus; settings: guinea pig
Cavia porcellus = species: Cavia porcellus; test: Inhibition of muscarinic receptor mediated [Ca2+] dependent contraction of guinea pig ileal longitudinal smooth muscle; assay type: functional

Compound	Relative activity [1]	ID50 (Cavia porcellus) [µM]
CCOC(=O)C1=C(C)NC(C)=C(C(=O)OCC)C1c1ccccc1	~ 18	0.03
COC(=O)C1=C(C)NC(C)=C(C(=O)OC)C1c1ccccc1	18	0.028
COC(=O)C1=C(C)N=C(C)/C(=C(\O)OC)C1c1c(F)c(F)c(F)c(F)c1F (configuration not stated)	–	0.0009
COC(=O)C1=C(C)NC(C)=C(C(=O)OC)C1c1ccccc1[N+](=O)[O-] [NIFEDIPINE]	100	0.0051

Second part, led by results:

Relative activity [1]	Compound	ID50 (Cavia porcellus) [µM]
0.005	COC(=O)C1=C(C)NC(C)=C(C(=O)OC)C1c1ccc(N(C)C)cc1	50
4.6	COC(=O)C1=C(C)N=C(C)/C(=C(\O)OC)C1c1cccc(C)c1 (configuration not stated)	0.11
1.7	COC(=O)C1=C(C)N=C(C)/C(=C(\O)OC)C1c1cccc(C#N)c1 (configuration not stated)	0.3
< 0.05	COC(=O)C1=C(C)N=C(C)/C(=C(\O)OC)C1c1ccc(C)cc1 (configuration not stated)	50
< 0.05	COC(=O)C1=C(C)N=C(C)/C(=C(\O)OC)C1c1ccc([N+](=O)[O-])cc1[N+](=O)[O-] (configuration not stated)	>50
